# Reference: patent US20250135012A1, “DENDRIMER CONJUGATES OF SMALL MOLECULE BIOLOGICS FOR INTRACELLULAR DELIVERY” (The Johns Hopkins University, priority 2021, published 2025)
# How the values were obtained:
# IL-1β = IL-1β mRNA in LPS stimulated BV2 cells (PCR); format: cell-based, murine
# Experimental: (§1) HMEC and BV2 samples were then collected with TRIzol for polymerase chain reaction (PCR) analysis. In brief, samples were subjected to a freeze-thaw cycle with TRIzol followed by the addition of 200 μL of chloroform (Thermo Fisher Scientific). The samples were shaken and placed in ice for 15 min. To aid in the separation of aqueous and organic layers, samples were centrifuged for 15 min at 15,000 g. The aqueous solution was collected and isopropanol was added to each sample (500 μL; Thermo Fisher Scientific). Samples were centrifuged again for 15 min at 15,000 g then washed with 75% ethanol in DEPC-treated water.
# (§2) RNA content was determined through Nanodrop and equivalent amount of RNA from each sample were converted to complementary DNA (Applied Biosystems, Foster City, CA). PCR analysis was performed on STEP ONE PLUS® real-time PCR system (Applied Biosystems) with Fast SYBR Green reagent. PCR primers for VEGF-A, GAPDH, and IL-1β were obtained from Bio-Rad Laboratories (Hercules, CA). Primers were purchased from Integrated DNA Technologies (Coralville, IA). Primers for TNFα were: […]
# HMECs = assay: HMEC Matrigel tube formation assay; format: cell-based, human; details: 24 h pretreatment, imaged after 7 h on Matrigel
# Experimental: HMECs were seeded onto 12-well plates at a density of 1×10^5 cells/mL and allowed to grow to confluency. […] After 24 h of treatment, cells were collected by detaching them with trypsin, collecting the resulting cell suspension, and centrifuging at 300 g for 5 min. Tube formation assay was performed according to protocol provided by Lonza.
# In brief, on the day of the assay, 96-well plates were coated with 75 μL of phenol-free […]® and left to polymerize at 37° C. for 20 min. The cell pellets were re-suspended with 300 μL of media and 75 μL of the solution (400,000 cells/mL) were seeded onto each […]®-coated wells.
# TNFα [1] = assay: Choroid TNFα mRNA by PCR, CNV mouse model; format: in vivo
# Experimental: (§3) For PCR, choroids were immersed in TRIzol, homogenized with steel beads, and filtered through Corning COSTAR SPIN-X® centrifuge tube filters (Sigma-Aldrich) to remove tissue solids. The RNA was isolated following the previously described protocol and the RNA concentration was determined through Nanodrop. Equivalent amounts of RNA were converted to complementary DNA (cDNA) and analyzed with Fast SYBR Green reagent through the STEP ONE PCR® system.
# [2] = system: choroidal neovascularization (CNV); assay: Laser-induced CNV mouse model, CNV area; format: in vivo, C57BL/6J mice
# Experimental: Prior to laser induction of CNV, a cocktail of ketamine/xylazine/acepromazine (100 mg/kg of ketamine, 20 mg/kg of xylazine, and 3 mg/kg of acepromazine) was injected intraperitoneally to anesthetize the animals. Animals were then treated with a drop of topical 2.5% Phyenylephrine Hydrochloride ophthalmic solution followed by 0.5% Tetracaine hydrochloride ophthalmic solution for pupil dilation. A Micron III SLO (Phoenix Research Labs, Pleasanton, CA) was used to image the fundus and focus the attached laser system (Phoenix Research Labs). Four equidistantly placed laser burns in the Bruch's membrane were created with a laser power setting of 240 mW at a duration of 70 ms.
# In brief, a 30G insulin syringe was used to create an injection opening in the sclera. A 10 μL Hamilton syringe was then used to administer the treatment directly into the vitreous cavity. After treatment, animals were given topical ocular antibiotic (gentamicin and prednisolone acetate ophthalmic ointment) to prevent infection. Animals were then sacrificed at set time points post treatment (7 and 14 days) for imaging and biochemical analysis.
# (§4) At set time points, animals were sacrificed and the enucleated eyes fixed in 4% paraformaldehyde for 1 h. The choroid and retina are then dissected out. Tissues were blocked and permeabilized through 2 h incubation with a solution of 5% normal goat serum, 0.3% Triton X-100, and 1% bovine serum albumin at room temperature under constant agitation. To visualize macrophage, tissues were stained with anti-Iba1 antibody (1:100; FUJIFILM® Wako Chemicals, Osaka, Japan) followed by ALEXA FLUOR® 405-labeled goat anti-rabbit secondary antibody (1:200; Abcam, MA, USA). Blood vessels were stained with FITC-labeled isolectin (GS IB4) (1:100; Life Technologies, Eugene, OR, USA).
# (§5) Flat-mounts were created by making four radial incisions on the tissue and mounting the relaxed tissues on coverslips. CNV formation was imaged with confocal 710 microscope (Carl Zeiss, Oberkochen, Germany) for biodistribution, and with an Axiovert phase contrast microscope for area calculation.
# VEGF-A [3] = assay: Choroid VEGF-A protein by ELISA, CNV mouse model; format: in vivo
# Experimental: Eyes were dissected immediately after enucleation without fixation. The choroid was collected and stored at −80° C. prior to analysis. For ELISA analysis, choroids were immersed in T-PER protein extraction buffer (Thermo Fisher Scientific) and homogenized with 0.9-2.0 mm stainless steel beads on a Bullet Blender Storm tissue homogenizer (Next Advantage Inc., Averill Park, NY). The supernatant was centrifuged to collect the aqueous solution. The samples were stored in −80° C. and used without further processing for ELISA detection of VEGF-A levels.
# VEGF-A [4] = assay: Choroid VEGF-A mRNA by PCR, CNV mouse model; format: in vivo; details: day 14
# Experimental: as §3
# VEGF-A [5] = assay: VEGF-A mRNA in HMECs (PCR); format: cell-based, human
# Experimental: as §1, §2
# TNFα [6] = assay: TNFα mRNA in LPS stimulated BV2 cells (PCR); format: cell-based, murine; details: BV2, LPS 100 ng/mL, 24 h, 1-100 nM
# Experimental: as §1, §2
# [7] = system: CNV area (macrophages, endothelial cells); assay: In vivo distribution and colocalization, CNV mouse model
# Experimental: For biodistribution studies, 1 μg of Cy5-D-miR126-Cy3 or miR-126-Cy3 on a nucleic acid basis (at concentration of 1 μg/μL) were administered to the animals in accordance to the above steps. Tissues were extracted at set time points (1, 3, 5, 7, 14 days post-treatment).
# as §4, §5
# To assess uptake and distribution, Cy3 labeled miR-126 and dually labeled Cy5-D-miR126-Cy3 were injected into laser CNV mouse models and choroids were collected at 1, 3, 5, 7, 14 days post-injection. Iba1 staining was used to visualize the intracellular environment of macrophage, and isolectin GS-IB4 was used to stain for both blood vessels and macrophages.
# [8] = 24 h post-injection (earliest time point)
substance,measurement,setting,value
miR-126: sense 5′-UCGUACCGUGAGUAAUAAUGCG-3′ (SEQ ID NO: 4); antisense 5′-CGCAUUAUUACUCACGGUACGA-[Thiol C6 S—S]-3′ (SEQ ID NO: 5) (3' thiol C6 S-S on antisense; misc_feature 22 3' end linked to Thiol-Modifier C6 S-S),concentration with the higher/high IL-1β knockdown effect,IL-1β,10 nM
same,dose response of IL-1β knockdown,IL-1β; 1-100 nM,inverse dose response
same,network formation,HMECs,disruption of network formation
same,TNFα mRNA,"TNFα [1]; 7 days, not statistically significant",elevated
same,TNFα mRNA,TNFα [1]; 14 days,suppressed TNFα
same,CNV area,"[2]; day 7, one intravitreal dose on day of CNV induction","~8,000 μm^2"
same,CNV area decrease (significance),[2]; day 14,insignificant decrease
same,reduction of CNV area compared to the control,[2]; day 14,~10%
same,CNV area,"[2]; day 14, one intravitreal dose","~8,000 μm^2"
same,VEGF-A protein vs untreated,VEGF-A [3]; day 7,significant decrease
same,"VEGF levels, treated vs untreated animals",VEGF-A [3]; day 14,no differences
same,VEGF-A mRNA levels,VEGF-A [4],still reduced
same,doses repressing VEGF-A at the same level as lower doses of D-miR126,VEGF-A [5],10 to 100 nM
same,knockdown of VEGF-A production,"VEGF-A [5]; 24 h, full-serum",~20%
same,knockdown of TNFα,TNFα [6],~50%
same,fraction of Cy3 (miR-126) signal colocalized with Iba1 (macrophages),[7]; [8],around 2%
same,fraction of signal in combined macrophage/endothelial population (isolectin GS-IB4),[7]; [8],around 3%
same,time in the CNV target area,"[7]; intravitreal, confocal microscopy",up to 7 days
same,fraction of signal colocalized within macrophages,[7]; peak at 5 days,~10%
same,fraction of signal within combined macrophage/endothelial population,[7]; peak at 5 days,~15%
